Test results from patent US6964870B2, “Enhanced selection of genetically modified pine embryogenic tissue” (MeadWestvaco Corporation, priority 2000, dated 2005).

Key:
Format in all cases: cell-based
[1] = test system: precotyledonary embryos of loblolly pine or hybrid cell lines; assay: Bombardment of precotyledonary embryos on preparation medium with high ABA (Example 3); conditions: preparation medium for bombardment with 125 mg/L ABA; lines of cross 7-56×9-6 and others incl. interspecific hybrids
Protocol: For transformation in this example, the tissue was bombarded using conditions described in Example 1 except that the tissue had been plated on MSG2 medium containing 125 mg/L ABA and 70 g/L PEG 3-8 weeks previously, instead of on medium DCR3 one day previously, so that the experimental treatment consisted of precotyledonary embryos at various stages of development. Following DNA transfer, visible pre-stage 3 embryos were dissected from the bombarded tissues and placed individually onto DCR2 as described above for secondary proliferation.
Following a period of one to 14 days, when a preponderance of pre-stage 3 embryos dissected from the bombarded tissue could be seen to be beginning to proliferate secondary embryogenic cell masses, samples to be assayed for transformation were transferred to a selection medium identical to DCR2 except that it contained […] to initiate secondary embryogenesis. Samples of isolated pre-stage 3 embryos from each line and the secondary tissue proliferating from them were also cultured on DCR2 maintenance media without selection agent to observe any effect of the bombardment treatment on proliferation. These cultures were transferred to fresh maintenance media every three weeks. Proliferation of these non-selected controls at nine weeks after dissection is recorded in Table 4. […]

[2] = test system: cell lines that are progeny of the elite P. taeda line 7-56; assay: Biolistic transformation, ABA in recovery and selection media (Example 2)
Protocol: Loblolly pine cell lines were used which had been grown and maintained as described in Example 1 above, and prepared for biolistic transformation as described in Example 1 above. In this example, only cell lines that are progeny of the elite P. taeda line 7-56 were used. Following bombardment the support membranes bearing the bombarded embryogenic cells were transferred to DCR2 maintenance media, either with or without the addition of 10 mg/l ABA for one week. Following this the support membranes bearing the bombarded embryogenic cells were placed on plates containing gelled DCR selection medium with 10 mg/l abscisic acid (ABA), and cultured for three days, so that all cells were exposed to 10 mg/l ABA in the selection medium for the first three days of selection. Following this the support membranes bearing the bombarded embryogenic cells were evenly divided among gelled media containing 5, 10, or 20 mg/l ABA for a period of two weeks. Following this, the support membranes bearing the bombarded embryogenic cells were evenly divided among gelled media containing 0, 5, 10, or 20 mg/l ABA for the remaining selection period, and transferred every three weeks to fresh selection media of the same composition.
The cells were also checked for the presence of sequences by PCR amplification using primers specific for both the uidA and nptII transgenes, techniques well known to those skilled in the art of plant transformation.

[3] = test system: Loblolly pine (Pinus taeda) embryogenic cell lines; assay: Biolistic transformation and selection of transformed sublines with or without ABA in the selection medium (Example 1)
From the text: To prepare for gene transfer, a sterile fabric support (in this example PECAP® fabric support, commercially available from SEFAR Inc.) was placed in a sterile Buchner funnel and one to five milliliters of embryogenic suspension was pipetted onto the fabric support such that the embryogenic tissue was evenly distributed over the surface. The liquid medium was suctioned from the tissues using a mild vacuum. The fabric support with embryogenic tissue was removed from the Buchner funnel and placed on a GELRITE® gelling agent solidified DCR3 preparation medium (Table 2) in 100×25 mm plastic petri dishes. Dishes were incubated in a dark growth chamber at 23°±2° C. for about 24-48 hours.
DNA was transferred into the tissues by the biolistic method described in U.S. patent application Ser. No. 09/318,136 filed on 25 May 1999 and New Zealand Patent No. 336149, each incorporated herein by reference, using the PDS-1000/He BIOLISTICS® Particle Delivery System (available from Bio-Rad Laboratories). The DNAs of interest, here containing the visual marker gene uidA and the selection gene nptII, were precipitated onto the surface of gold microparticles, which were subsequently accelerated toward embryogenic tissue to penetrate the cell walls. Once inside the cells, DNA is released from the carrier particles and integrated randomly into the chromosomes.
The petri dishes with the fabric support and embryonic tissues were then placed into the interior of the PDS 1000/He BIOLISTICS® device and vacuum applied to a level of 28 inches Hg. The gold particles carrying the DNA were accelerated toward the embryogenic tissue following a helium build-up and bursting regulated by a 1550 psi rupture disk. In the PDS-1000/He BIOLISTICS® device the gap between the rupture disk and the macrocarrier (gap distance) was five mm and the macrocarrier travel distance was 13 mm. Following DNA transfer the petri dishes containing the fabric support and tissues were incubated in a dark growth chamber at 23°±2° C. for about 24 hours. The tissues and fabric support were transferred to semi-solid maintenance medium, DCR1 (Table 2) to recover from carrier particle bombardment and incubated in a dark growth chamber at 23°±2° C. for a period of about seven days. The tissues and fabric support were transferred to a selection medium, semi-solid maintenance medium DCR1 containing a level of selection agent inhibitory to the growth of non-transformed cells. In this and subsequent examples the selection agent used was GENETICIN® antibiotic at 15-30 mg/l. The plates were incubated in a dark growth chamber at 23°±2° C. for about six to twelve weeks with the fabric supports containing the tissues being transferred to the same fresh culture medium every 2-3 weeks. […]

Compound: CC1=CC(=O)CC(C)(C)[C@@]1(O)/C=C/C(C)=C\C(=O)O [ABA, abscisic acid]
- frequency of transformants [1]: surprisingly high frequency of transformants
- number of transformants detected ([2]; 10 mg/L ABA in the recovery media): did not significantly increase the number of transformants detected
- transformants recovered after ten weeks of selection ([2]; 5, 10, or 20 mg/l ABA present for the latter 9 weeks of selection): Transformants were recovered
- transformants recovered after ten weeks of selection ([2]; ABA concentration increased to 20 mg/l after the first transfer on selection media): the largest number of transformants were recovered
- stable transformants after nine weeks of selection ([3]; 10 mg/L ABA in medium only during the first three weeks of selection): Stable transformants were detected
- stable transformants after nine weeks of selection ([3]; ABA in selection medium throughout the entire nine-week selection period): more transformants were detected
- transformants from a cell line of an elite family, progeny of P. taeda elite line 7-56 ([3]; ABA in the selection medium vs none): observed only on treatments that had contained ABA in the selection medium
- number of transformants obtained ([3]; ABA present during the entire period of transfer, all lines tested): equal to or greater than the number obtained for any other treatment
